What was measured:
[1] = tested on: pro-collagen synthesis in Hs27/HEK001 cells; assay: Pro-Collagen Synthesis In Vitro Assay (Procollagen ELISA); assay type: cell-based, human
Experimental: Hs27/HEK001 cells are plated at 10,000/40,000 cells per well of 96-well plate. Hs27 cells are normal human fibroblasts derived from a foreskin source. […] cells are a human epidermal cell line that originally was derived from human scalp keratinocytes. […] Hs27/HEK001 cells are allowed to attach overnight. Following overnight incubation, media is removed from the wells and replaced with 100 μl fresh media.
After overnight incubation, the test samples are added to wells in triplicate to final concentrations of 1, 10, and 100 μg/ml. The cells with test sample added are incubated overnight and supernatants are collected for analysis using a Procollagen ELISA kit from Takara Bio, Inc. (Japan). The EC50 concentration for each test sample is monitored and recorded to evaluate variability over time.
Controls for this assay include administration of 0.1, 1, and 10 μg/ml ascorbic acid and all-trans-retinoic acid to H27/HEK cells. Untreated cells also are used as a negative control. It generally is known that ascorbic acid increases pro-collagen synthesis by approximately 15-20% compared to untreated control.

[2] = tested on: glycosaminoglycan production; assay: Synthesis of glycosaminoglycans after allantoin administration; assay type: cell-based
elastin = assay: Elastin synthesis after allantoin administration; assay type: cell-based
[3] = tested on: pro-collagen synthesis in Hs27/HEK001 cells; conditions: generally known value for the control substance; cited from earlier work

| Structure (SMILES) | Pro-collagen synthesis, percent of untreated control ([1]; allantoin at 100 μg/ml, average of triplicate wells) | average increase in pro-collagen synthesis ([1]; at 100 μg/ml) | dose dependence of pro-collagen synthesis ([1]; final concentrations of 1, 10, and 100 μg/ml) | Glycosaminoglycan synthesis, percent of untreated control ([2]; allantoin at 100 μg/ml) | average increase in glycosaminoglycan production ([2]; at 100 μg/ml) | Elastin synthesis, percent of untreated control (elastin; allantoin at 100 μg/ml) | average increase in elastin (elastin; at 100 μg/ml) | increase in pro-collagen synthesis compared to untreated control [3] |
| --- | --- | --- | --- | --- | --- | --- | --- | --- |
| NC(=O)NC1NC(=O)NC1=O (centres unmarked) [Allantoin, 2,5-dioxy-4-imidazolidinyl urea] | 124.1% | 24.1% | dose-dependent increase in pro-collagen synthesis | 111.2% | 11.2% | 106.2% | 6.2% | – |
| O=C1O[C@H]([C@@H](O)CO)C(O)=C1O [ascorbic acid] | – | – | – | – | – | – | – | 15-20% |

— patent publication US20080108681A1 (Access Business Group International LLC, priority 2006, published 2008)
